According to US6716582B2 (priority 2000, dated 2004):

Columns and labels:
[1] = system: uhpT-luxCDABE gene fusion (strain DPD3228); experiment: verification of uhpT-lux upregulation by limonene; assay type: cell-based, E. coli; details: late response, maximal at highest concentration, detected at 40% or 20% of saturation
Procedure: E. coli strain DPD3228 is identical to lux-a.pk034.b9 the strain containing the uhpT-luxCDABE gene fusion. This strain was grown overnight at 37° C. in LB medium containing 100 μg/ml ampicillin and diluted the following day into LB medium and grown to log phase at 37° C. 20 μl aliquots of this culture were added to 80 μl of LB medium saturated with limonene, to 80 μl of a series of two fold dilutions into LB medium of LB saturated with limonene, and to 80 μl of LB medium. Light production was measured in a Luminoskan Ascent (Labsystems) microplate luminometer at 37° C. […] Similar to the initial LuxArray observations, a late response to the presence of limonene was observed. This response was maximal at the highest concentration of limonene tested, but was also detected when limonene was present at 40% or 20% of saturating amounts in LB medium.

[2] = system: LuxArray 1.04 luxCDABE gene fusions; experiment: LuxArray 1.04 limonene stress in liquid culture; assay type: cell-based, E. coli; details: for upregulation of gene fusion: 80% saturated limonene
Procedure: Microplates from −80° C. containing the LuxArray 1.04 E. coli strains were thawed and used to inoculate 100 μl LB medium supplemented with 100 μg/ml ampicillin in Costar#3595 flat bottomed 96-well microplates. Following overnight growth at 37° C., the plates were visually examined and any wells with little or no turbidity were recorded. Then these cultures were diluted by transfer of 15 μl to 135 μl LB medium in Costar #3595, flat bottom 96-well microplates and were moderately swirl shaken on an IKA Schuttler MTS 4 shaker at setting 400 for two hrs at 37° C. in a humidified box. Twenty μl of each these actively growing cultures were transferred to the corresponding well in sets of three microplates, one containing 80 μl of LB medium, another containing 80 μl of LB medium saturated with limonene at room temperature, and the third containing 40 μl of LB medium saturated with limonene and 40 μl of LB medium. An initial (zero time) reading was taken using an MLX microplate luminometer (Dynex) pre-warmed to 37° C. Then the plates were placed at 37° C. without shaking. Additional bioluminescent measurements were taken at 45, 90, and 135 minutes. To limit the number of microplates handled each day, LuxArray 1.04 microplates 1 to 5, microplates 6 to 10, microplates 11 to 15, and microplates […] were used on each of four different days.
The data were normalized to correct for growth inhibition caused by limonene on the basis of each individual day that data was collected. The bioluminescence (RLU) of each individual culture for each day of experimentation under each of the three conditions, were added to determine the daily array total RLU. These were used to find a daily normalization factor (DNF) as follows:
DNF=Daily total array signal (time zero, LB control)/Daily total array signal (time x, condition y)
Each measurement from the corresponding day, time point, and condition was multiplied by DNF to yield a normalized signal. The data from wells that were scored to have little or no growth were not used in further analysis. The normalized data were analyzed with GeneSpring (Silicon Genetics) software, which averaged the signal from each of the duplicate cultures for each reporter gene fusion.
Thus, patterns of gene expression from the 80% saturated limonene in LB medium were further examined. […] These lists were examined and gene fusions with very low normalized RLU values (<0.012 RLU) at all conditions were eliminated. […] The designation of “>2×” is given for upregulation while “*” is listed if the expression was less than 2 fold increased. At 45 minutes, the expression of fourteen gene fusions was increased; none of these was increased 3 fold or higher. At 90 minutes, 37 gene fusions were induced; these included all but one of the gene fusions observed at 45 minutes. […] These were fusions of the luxCDABE reporter to the promoter regions of uhpT (3.8×), nirB (3.7×) and narK (3.6×). At 135 minutes, 39 gene fusions were induced, which included 13 fusions not observed at 45 or 90 minutes.

For `C=C(C)[C@H]1CC=C(C)CC1` [limonene], the upregulation of bioluminescence [1] was “upregulation of bioluminescence from this strain by limonene was confirmed”, the “upregulation of gene fusion” value ([2]; katG-lux, 135 minutes) was 4.1 × and the “upregulation of gene fusion” value ([2]; narK-lux, 90 minutes) was 3.6 ×. For the same compound, the “upregulation of gene fusion” value ([2]; nirB-lux, 90 minutes) was 3.7 ×, the “upregulation of gene fusion” value ([2]; nirB-lux, 135 minutes) was 4.1 × and the “upregulation of gene fusion” value ([2]; uhpT-lux, 90 minutes) was 3.8 ×. For the same compound, the “upregulation of gene fusion” value ([2]; uhpT-lux, 135 minutes) was 7.7 × and the “upregulation of gene expression” value ([2]; whole LuxArray 1.04, 40% saturated limonene in LB medium) was “little to no upregulation”.
